The text below walks through data of patent US5306722A, “Thymidine derivatives and therapeutic method of use” (Bristol-Myers Squibb Company, priority 1992, dated 1994).

In this assay the target is HSV-1 TK (Human alphaherpesvirus 1 strain KOS, UniProt P17402). The assay is described as follows: Thymidine kinase inhibitory assay. In kind it is biochemical. The following applies: 1 μM [^3 H]thymidine, 5 mM ATP, pH 7.5, 37° C., 1 hour; 0-20 μM inhibitor; slope replots of Lineweaver-Burk plots. As for the experimental part:
The reaction (50 μl) was performed in: 50 mM Tris-HCl pH 7.5, 5 mM MgCl2, 30 mM KCl, 2 mM dithiothreitol, 5 mM ATP, 1 μM [^3 H]thymidine, 0-20 μM potential inhibitor, 0.075 mg/ml bovine serum albumin, 0.1 unit/ml HSV-1 TK. Incubation was at 37° C. for 1 hour. Samples (40 μl) were spotted on DE-81 filter disks, washed with 1 mM ammonium formate (pH 7), three times with water, twice with ethanol, and dried. Radioactivity was quantitated in a scintillation counter.
TK (thymidine kinase) was affinity purified from HSV-1 (KOS) infected cells by published procedures (Fyfe (1982) Mol. Pharmacol. 21:432-437 and Field et al. (1990) Antiviral Res. 13:41-52). One unit is defined as 1 nanomole thymidine phosphorylated per hour.
In Table 2, inhibition constants were determined from slope replots (1/slope vs [I]) of Lineweaver-Burk plots. "N" indicates the number of experiments, and each experiment was done in triplicate.

As usually defined, the Ki is a dissociation constant, usually derived from enzyme kinetics or from competition with a known ligand. A low value points to tighter binding.

Chain of HSV-1 TK (P17402 whole entry, looked up): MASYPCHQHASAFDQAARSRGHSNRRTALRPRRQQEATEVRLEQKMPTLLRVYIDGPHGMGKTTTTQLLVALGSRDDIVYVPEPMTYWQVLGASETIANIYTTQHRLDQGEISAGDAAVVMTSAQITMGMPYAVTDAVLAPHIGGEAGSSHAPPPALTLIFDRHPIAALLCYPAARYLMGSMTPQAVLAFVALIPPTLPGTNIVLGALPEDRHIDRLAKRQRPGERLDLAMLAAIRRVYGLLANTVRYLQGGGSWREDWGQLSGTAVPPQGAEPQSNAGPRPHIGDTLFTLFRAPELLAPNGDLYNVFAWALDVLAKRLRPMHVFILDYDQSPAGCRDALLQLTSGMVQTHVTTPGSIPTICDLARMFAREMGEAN

On to `CO[C@H]1O[C@@H](n2cc(C)c(=O)[nH]c2=O)C[C@@H]1O` (single isomer, unassigned) [Compound 2], for which the inhibitory constant (Ki) came to 3.2 ± 0.3 µM. `Cc1cn([C@H]2C[C@H](O)[C@@H](OCCc3ccccc3)O2)c(=O)[nH]c1=O` [Compound 12] returned a Ki of 26 µM. Under `Cc1cn([C@H]2C[C@@H](O)[C@H](OCCc3ccccc3)O2)c(=O)[nH]c1=O` [Compound 13] stands 4.3 ± 1.8 µM. With `Cc1cn([C@H]2C[C@@H](O)[C@H](OCc3ccc(Br)cc3)O2)c(=O)[nH]c1=O` [Compound 16] the figure was 10.1 ± 4.7 µM.
